Experimental data taken from US20100041089A1, “IMPROVED METHOD FOR DETECTING CHEMICAL […]” (priority 2006, published 2010).

Tested on: yeast genes (expressed mRNA)
Test: DNA chip measurement of expressed mRNA of yeast genes after culture with a toxic chemical substance
Assay type: cell-based, Saccharomyces cerevisiae S288C
Details: for level of expressed mRNA in the presence of chemical substance / level in the absence of chemical substance: cultured two hours with the chemical substance; for The level of expressed mRNA in the presence of chemical substance/The level of expressed mRNA in the absence of chemical substance: cultured two hours with substance
Procedure: Yeast (Saccharomyces cerevisiae S288C (a SUC2mal mel gap2 CUP1)) were cultured at 25° C. on YPD medium (yeast extract 1%, polypeptone 2%, glucose 2%). One of toxic chemical substances was added to the cell at logarithmic growth phase, and the cell was further cultured for two hours. Cell was cultured without any chemical substance in the same condition, and was used as a control. Concentrations of the chemical substances were defined to inhibit the growth of the yeast but not lead to death.
After the completion of cultivation, the culture was centrifuged to collect the cells. To the cells, sodium acetate buffer (50 mM sodium acetate, 10 mM EDTA, 1% SDS) was added, and the mixture was shaken at 65° C. for five minutes, followed by returning to room temperature, and obtaining the supernatant, which procedure was repeated two times. To the supernatant, ½ amount of a solution of phenol/chloroform (1:1) was added, and the mixture was centrifuged to give a supernatant, an equal amount of chloroform was added, and the mixture was centrifuged to give a supernatant. To the supernatant, an equal amount of isopropanol containing 0.3 M sodium acetate was added, and the mixture was allowed to stand at room temperature for 30 minutes, after which the mixture was centrifuged to give sediment of the whole RNAs. Seventy % ethanol was added to the sediment, and the mixture was again centrifuged to give sediment, which was then dried and dissolved in water. mRNA was isolated from the whole RNAs as followings. In view of the fact that a poly A chain is attached to the 3′ terminus of mRNA, a polynucleotide having a poly T structure which was immobilized on the surface of latex beads was used to trap the mRNA, and then the mRNA was washed and eluted with spine column (Oligotex-dT30<Super>mRNA Purification Kit, Takara). Reverse transcription of the mRNA was conducted with a reverse transcriptase (Super Script II Reverse Transcriptase; catalogue No. 18064-014, GibcoBRL) using fluorescence-labeled nucleotides to give cDNAs that were introduced with Cy3-dUTP or Cy5-dUTP during the reverse transcription.
The labeled cDNAs were dissolved in TE buffer (10 mM Tris-HCl/1 mM EDTA, pH 8.0), and the solution was dropped on the DNA chip containing the whole genes of yeast (DNA Chip Research Inc. Japan) so that the cDNAs were hybridized on the DNA chip at 65° C. for over 12 hours. The fluoresces intensity of the DNA chip was read with a scanner, and the ratio relative to the fluorescence intensity resulting from the absence of chemical substance was estimated as the following, which is shown in Tables 1 to 9.
In the Tables, “Intensity” indicated in the rightmost column is a value of the level of expressed mRNA of each gene in control cells as divided by the average level of the expressions of the whole genes. A gene of which mRNA level is lower in control, and is higher in cases of addition of chemical substance, is especially useful in the detection of toxic substances.
Here, when a ratio of an amount of mRNA expressed in the presence of the chemical substance to an amount of mRNA expressed in the absence of the chemical substance is two or more, then it is considered significant.

CCCCCCCCCCCCc1ccc(S(=O)(=O)[O-])cc1.[Na+] [(17), Sodium dodecylbenzosulfonate]
The level of expressed mRNA in the presence of chemical substance/The level of expressed mRNA in the absence of chemical substance, yeast gene YBR036C (gene YBR036C, Metabolism protein genes, DNA chip fluorescence ratio): 2.1
The level of expressed mRNA in the presence of chemical substance/The level of expressed mRNA in the absence of chemical substance, yeast gene YBR298C (gene YBR298C, Metabolism protein genes, DNA chip fluorescence ratio): 0.9
The level of expressed mRNA in the presence of chemical substance/The level of expressed mRNA in the absence of chemical substance, yeast gene YDL067C (gene YDL067C (mitochondria-located protein gene), yeast cultured two hours with chemical substance, DNA chip fluorescence ratio to control): 1.2
The level of expressed mRNA in the presence of chemical substance/The level of expressed mRNA in the absence of chemical substance, yeast gene YDL078C (gene YDL078C, Metabolism protein genes, DNA chip fluorescence ratio): 1.1
The level of expressed mRNA in the presence of chemical substance/The level of expressed mRNA in the absence of chemical substance, yeast gene YDL215C (gene YDL215C, Metabolism protein genes, DNA chip fluorescence ratio): 1.1
The level of expressed mRNA in the presence of chemical substance/The level of expressed mRNA in the absence of chemical substance, yeast gene YDR079W (gene YDR079W (mitochondria-located protein gene), yeast cultured two hours with chemical substance, DNA chip fluorescence ratio to control): 1.1
The level of expressed mRNA in the presence of chemical substance/The level of expressed mRNA in the absence of chemical substance, yeast gene YDR297W (gene YDR297W, Metabolism protein genes, DNA chip fluorescence ratio): 1.9
The level of expressed mRNA in the presence of chemical substance/The level of expressed mRNA in the absence of chemical substance, yeast gene YDR387C (gene YDR387C, Metabolism protein genes, DNA chip fluorescence ratio): 1.2
The level of expressed mRNA in the presence of chemical substance/The level of expressed mRNA in the absence of chemical substance, yeast gene YGL035C (gene YGL035C, Metabolism protein genes, DNA chip fluorescence ratio): 0.9
The level of expressed mRNA in the presence of chemical substance/The level of expressed mRNA in the absence of chemical substance, yeast gene YGR062C (gene YGR062C (mitochondria-located protein gene), yeast cultured two hours with chemical substance, DNA chip fluorescence ratio to control): 0.9
The level of expressed mRNA in the presence of chemical substance/The level of expressed mRNA in the absence of chemical substance, yeast gene YGR287C (gene YGR287C, Metabolism protein genes, DNA chip fluorescence ratio): 1.0
The level of expressed mRNA in the presence of chemical substance/The level of expressed mRNA in the absence of chemical substance, yeast gene YJL070C (gene YJL070C, Metabolism protein genes, DNA chip fluorescence ratio): 1.1
The level of expressed mRNA in the presence of chemical substance/The level of expressed mRNA in the absence of chemical substance, yeast gene YJL096W (gene YJL096W (mitochondria-located protein gene), yeast cultured two hours with chemical substance, DNA chip fluorescence ratio to control): 1.1
The level of expressed mRNA in the presence of chemical substance/The level of expressed mRNA in the absence of chemical substance, yeast gene YJL180C (gene YJL180C (mitochondria-located protein gene), yeast cultured two hours with chemical substance, DNA chip fluorescence ratio to control): 0.9
The level of expressed mRNA in the presence of chemical substance/The level of expressed mRNA in the absence of chemical substance, yeast gene YKR009C (gene YKR009C, Metabolism protein genes, DNA chip fluorescence ratio): 1.9
The level of expressed mRNA in the presence of chemical substance/The level of expressed mRNA in the absence of chemical substance, yeast gene YLR295C (gene YLR295C (mitochondria-located protein gene), yeast cultured two hours with chemical substance, DNA chip fluorescence ratio to control): 0.9
The level of expressed mRNA in the presence of chemical substance/The level of expressed mRNA in the absence of chemical substance, yeast gene YLR351C (gene YLR351C, Metabolism protein genes, DNA chip fluorescence ratio): 1.3
The level of expressed mRNA in the presence of chemical substance/The level of expressed mRNA in the absence of chemical substance, yeast gene YLR375W (gene YLR375W, Metabolism protein genes, DNA chip fluorescence ratio): 1.0
The level of expressed mRNA in the presence of chemical substance/The level of expressed mRNA in the absence of chemical substance, yeast gene YMR023C (gene YMR023C (mitochondria-located protein gene), yeast cultured two hours with chemical substance, DNA chip fluorescence ratio to control): 1.1
The level of expressed mRNA in the presence of chemical substance/The level of expressed mRNA in the absence of chemical substance, yeast gene YMR267W (gene YMR267W (mitochondria-located protein gene), yeast cultured two hours with chemical substance, DNA chip fluorescence ratio to control): 0.9
The level of expressed mRNA in the presence of chemical substance/The level of expressed mRNA in the absence of chemical substance, yeast gene YMR267W (gene YMR267W, Metabolism protein genes, DNA chip fluorescence ratio): 0.9
The level of expressed mRNA in the presence of chemical substance/The level of expressed mRNA in the absence of chemical substance, yeast gene YMR278W (gene YMR278W, Metabolism protein genes, DNA chip fluorescence ratio): 1.0
The level of expressed mRNA in the presence of chemical substance/The level of expressed mRNA in the absence of chemical substance, yeast gene YMR293C (gene YMR293C, Metabolism protein genes, DNA chip fluorescence ratio): 0.8
The level of expressed mRNA in the presence of chemical substance/The level of expressed mRNA in the absence of chemical substance, yeast gene YNL073W (gene YNL073W (mitochondria-located protein gene), yeast cultured two hours with chemical substance, DNA chip fluorescence ratio to control): 0.8
The level of expressed mRNA in the presence of chemical substance/The level of expressed mRNA in the absence of chemical substance, yeast gene YNR072W (gene YNR072W, Metabolism protein genes, DNA chip fluorescence ratio): 1.3
The level of expressed mRNA in the presence of chemical substance/The level of expressed mRNA in the absence of chemical substance, yeast gene YOL096C (gene YOL096C, Metabolism protein genes, DNA chip fluorescence ratio): 1.2
The level of expressed mRNA in the presence of chemical substance/The level of expressed mRNA in the absence of chemical substance, yeast gene YOR180C (gene YOR180C, Metabolism protein genes, DNA chip fluorescence ratio): 0.9
The level of expressed mRNA in the presence of chemical substance/The level of expressed mRNA in the absence of chemical substance, yeast gene YOR316C (gene YOR316C (mitochondria-located protein gene), yeast cultured two hours with chemical substance, DNA chip fluorescence ratio to control): 0.8
The level of expressed mRNA in the presence of chemical substance/The level of expressed mRNA in the absence of chemical substance, yeast gene YOR363C (gene YOR363C, Metabolism protein genes, DNA chip fluorescence ratio): 1.3
The level of expressed mRNA in the presence of chemical substance/The level of expressed mRNA in the absence of chemical substance, yeast gene YPL040C (gene YPL040C (mitochondria-located protein gene), yeast cultured two hours with chemical substance, DNA chip fluorescence ratio to control): 0.8
The level of expressed mRNA in the presence of chemical substance/The level of expressed mRNA in the absence of chemical substance, yeast gene YPL134C (gene YPL134C (mitochondria-located protein gene), yeast cultured two hours with chemical substance, DNA chip fluorescence ratio to control): 1.3
The level of expressed mRNA in the presence of chemical substance/The level of expressed mRNA in the absence of chemical substance, yeast gene YPR184W (gene YPR184W, Metabolism protein genes, DNA chip fluorescence ratio): 1.0
level of expressed mRNA in the presence of chemical substance / level in the absence of chemical substance (yeast gene YAL018C): 0.9
The level of expressed mRNA in the presence of chemical substance/The level of expressed mRNA in the absence of chemical substance (yeast gene YAL053W): 1.2
level of expressed mRNA in the presence of chemical substance / level in the absence of chemical substance (yeast gene YAR047C): 1.7
level of expressed mRNA in the presence of chemical substance / level in the absence of chemical substance (yeast gene YAR064W): 0.9
level of expressed mRNA in the presence of chemical substance / level in the absence of chemical substance (yeast gene YBL044W): 0.8
The level of expressed mRNA in the presence of chemical substance/The level of expressed mRNA in the absence of chemical substance (yeast gene YBL048W): 1.3
The level of expressed mRNA in the presence of chemical substance/The level of expressed mRNA in the absence of chemical substance (yeast gene YBL107C): 0.9
level of expressed mRNA in the presence of chemical substance / level in the absence of chemical substance (yeast gene YBR012C): 1.4
level of expressed mRNA in the presence of chemical substance / level in the absence of chemical substance (yeast gene YBR066C): 1.2
level of expressed mRNA in the presence of chemical substance / level in the absence of chemical substance (yeast gene YBR124W): 0.9
level of expressed mRNA in the presence of chemical substance / level in the absence of chemical substance (yeast gene YBR162C): 1.2
level of expressed mRNA in the presence of chemical substance / level in the absence of chemical substance (yeast gene YBR287W): 3.2
level of expressed mRNA in the presence of chemical substance / level in the absence of chemical substance (yeast gene YCL042W): 0.8
level of expressed mRNA in the presence of chemical substance / level in the absence of chemical substance (yeast gene YCL056C): 1.2
level of expressed mRNA in the presence of chemical substance / level in the absence of chemical substance (yeast gene YCR007C): 2.6
level of expressed mRNA in the presence of chemical substance / level in the absence of chemical substance (yeast gene YDL046W): 1.2
The level of expressed mRNA in the presence of chemical substance/The level of expressed mRNA in the absence of chemical substance (yeast gene YDL072C): 1.6
The level of expressed mRNA in the presence of chemical substance/The level of expressed mRNA in the absence of chemical substance (yeast gene YDL204W): 1.8
The level of expressed mRNA in the presence of chemical substance/The level of expressed mRNA in the absence of chemical substance (yeast gene YDL222C): 0.9
level of expressed mRNA in the presence of chemical substance / level in the absence of chemical substance (yeast gene YDR090C): 1.1
